Measurements taken from ChEMBL document CHEMBL6092167, “Phosphorylation as an Effective Tool to Improve Stability and Reduce Toxicity of Antimicrobial Peptides” (J Med Chem, 2024).
Converted amounts (≈) assume the structure as drawn. The source made the active and inactive calls. The calls are words filed in the database; no cut-off is given here. Non-standard residues stand in square brackets, D forms with d. Residues, ends and D or L forms follow the SMILES beside them. Bip = N[C@@H](Cc1ccc(-c2ccccc2)cc1)C(=O)O; pY = N[C@@H](Cc1ccc(OP(=O)(O)O)cc1)C(=O)O

Assays:
[1] = Toxicity in ip dosed BALB/c mouse assessed as inflammatory cell infiltration in kidney at LD50 dose by H and E staining based assay; format: organism-based; conditions: in vivo
[2] = test system: Klebsiella pneumoniae; experiment: Additive antibacterial activity against Klebsiella pneumoniae ATCC 700603 assessed as fractional inhibitory concentration index at 1/4 to 4 times MIC incubated for 18 to 24 hrs in presence of ciprofloxacin by checkerboard assay; format: functional; conditions: time 18-24 hrs
[3] = test system: Staphylococcus aureus; experiment: Antibacterial activity against Staphylococcus aureus ATCC 25923 infected in BALB/c mouse systemic infection model assessed as reduction in bacterial load in kidney at 20 mg/kg, ip pre-infected for 2 hrs followed by compound addition and measured after 8 hrs postinfection; format: functional, organism-based; conditions: time 6.0 hrs
[4] = Stability in Kunming mouse serum assessed as half life measured upto 24 hrs by RP-HPLC method; format: ADME, cell-free
[5] = test system: Staphylococcus aureus; experiment: Antibacterial activity against Staphylococcus aureus ATCC 25923 infected in BALB/c mouse systemic infection model assessed as improved alveoli dilation at 20 mg/kg, ip pre-infected for 2 hrs followed by compound addition and measured after 8 hrs postinfection; format: functional, organism-based; conditions: time 6.0 hrs
[6] = test system: Klebsiella pneumoniae; experiment: Durg resistance development in Klebsiella pneumoniae ATCC 700603 measured after 20 passage; format: functional, organism-based
[7] = Toxicity in BALB/c mouse assessed as mortality at 40 to 130 mg/kg, ip measured after 14 days; format: organism-based; conditions: in vivo, 336 h, dose 40-130 mg/kg, time 14 day
[8] = test system: Staphylococcus aureus; experiment: Inhibition of biofilm formation in Staphylococcus aureus ATCC 25923 at 1 time MIC incubated for 24 hrs by crystal violet staining based assay; format: functional, organism-based
[9] = test system: Escherichia coli; experiment: Antibiofilm activity against Escherichia coli ATCC 25922 assessed as eradication of preformed biofilms incubated for 24 hrs by crystal violet staining based assay; format: functional, organism-based
[10] = test system: Escherichia coli; experiment: Antibacterial activity against Escherichia coli 780 incubated for 18 to 24 hrs by broth microdilution method; format: functional; conditions: time 18-24 hrs
[11] = test system: Klebsiella pneumoniae; experiment: Bactericidal activity against Klebsiella pneumoniae ATCC 700603 at 2 times MIC measured upto 1440 mins by time kill assay; format: functional, organism-based
[12] = test system: Klebsiella pneumoniae; experiment: Antibacterial activity against Klebsiella pneumoniae ATCC 700603 infected in BALB/c mouse lung infection model assessed as increase in mouse survival at 5 mg/kg, ip administered twice daily for 3 days and measured for 7 days; format: functional, organism-based; conditions: time 10.0 day
[13] = test system: Klebsiella pneumoniae; experiment: Antibacterial activity against Klebsiella pneumoniae ATCC 700603 infected in BALB/c mouse lung infection model assessed as improved alveolar aggregation at 5 mg/kg, ip administered twice daily for 3 days and measured after 7 days; format: functional, organism-based; conditions: time 10.0 day
[14] = test system: Escherichia coli; experiment: Antibacterial activity against Escherichia coli 25922 assessed as interaction with LPS by measuring bacterial mortality at 2 times MIC preincubated with LPS for 1 hr followed by bacterial addition and measured after overnight by microplate reader assay; format: functional, organism-based
[15] = test system: Staphylococcus aureus; experiment: Antibacterial activity against Staphylococcus aureus ATCC 25923 infected in BALB/c mouse systemic infection model assessed as reduction in bacterial load in lung at 20 mg/kg, ip pre-infected for 2 hrs followed by compound addition and measured after 8 hrs postinfection; format: functional, organism-based; conditions: time 6.0 hrs
[16] = test system: Klebsiella pneumoniae; experiment: Antibacterial activity against Klebsiella pneumoniae ATCC 700603 infected in BALB/c mouse lung infection model assessed as removal of bacterial load at 5 mg/kg, ip administered twice daily for 3 days and measured after 6 days; format: functional; conditions: time 9 day
[17] = test system: Klebsiella pneumoniae; experiment: Antibacterial activity against Klebsiella pneumoniae ATCC 700603 infected in BALB/c mouse lung infection model assessed as alveolar dilation at 5 mg/kg, ip administered twice daily for 3 days and measured after 7 days; format: functional, organism-based; conditions: time 10.0 day
[18] = test system: Klebsiella pneumoniae; experiment: Antibacterial activity against rifampicin resistant Klebsiella pneumoniae; format: functional
[19] = test system: Staphylococcus aureus; experiment: Antibacterial activity against Staphylococcus aureus ATCC 25923 incubated for 18 to 24 hrs by broth microdilution method; format: functional; conditions: time 18-24 hrs
[20] = test system: Pseudomonas aeruginosa; experiment: Antibacterial activity against Pseudomonas aeruginosa 119 incubated for 18 to 24 hrs by broth microdilution method; format: functional; conditions: time 18-24 hrs
[21] = Toxicity in ip dosed BALB/c mouse assessed as hemorrhage in kidney at LD50 dose by H and E staining based assay; format: organism-based; conditions: in vivo
[22] = test system: Cell membrane; experiment: Induction of cytoplasmic membrane rupture in Staphylococcus aureus ATCC 25923 assessed as shrinkage at 2 times MIC incubated for 30 to 120 mins by SEM analysis; format: subcellular; conditions: time 30-120 min
[23] = Toxicity in ip dosed BALB/c mouse assessed as kidney bleeding at LD50 dose by H and E staining based assay; format: organism-based; conditions: in vivo
[24] = test system: Klebsiella pneumoniae; experiment: Bactericidal activity against Klebsiella pneumoniae ATCC 700603 at 2 times MIC within 60 mins by time kill assay; format: functional, organism-based
[25] = test system: Klebsiella pneumoniae; experiment: Antibacterial activity against Klebsiella pneumoniae ATCC 700603 infected in BALB/c mouse lung infection model assessed as alveolar dilation at 5.31 mg/kg, ip administered twice daily for 3 days and measured after 7 days; format: functional, organism-based; conditions: time 10.0 day
[26] = test system: Staphylococcus aureus; experiment: Antibacterial activity against Staphylococcus aureus ATCC 25923 infected in BALB/c mouse systemic infection model assessed as improved alveoli dilation at 21.21 mg/kg, ip pre-infected for 2 hrs followed by compound addition and measured after 8 hrs postinfection; format: functional, organism-based; conditions: time 6.0 hrs
[27] = test system: Staphylococcus aureus; experiment: Antibacterial activity against Staphylococcus aureus ATCC 25923 in presence of ZnCl2; format: functional, organism-based
[28] = test system: Klebsiella pneumoniae; experiment: Antibacterial activity against Klebsiella pneumoniae ATCC 700603 infected in BALB/c mouse lung infection model assessed as increase in mouse survival at 5.31 mg/kg, ip administered twice daily for 3 days and measured for 7 days; format: functional, organism-based; conditions: time 10.0 day
[29] = test system: Staphylococcus aureus; experiment: Antibacterial activity against Staphylococcus aureus ATCC 25923 infected in BALB/c mouse systemic infection model assessed as reduction in bacterial load in spleen at 21.21 mg/kg, ip pre-infected for 2 hrs followed by compound addition and measured after 8 hrs postinfection; format: functional, organism-based; conditions: time 6.0 hrs
[30] = test system: Escherichia coli; experiment: Antibacterial activity against Escherichia coli ATCC 25922 in presence of ZnCl2; format: functional, organism-based
[31] = Toxicity in ip dosed BALB/c mouse assessed as effect on lung at LD50 dose by H and E staining based assay; format: organism-based; conditions: in vivo
[32] = Toxicity in ip dosed BALB/c mouse assessed as effect on heart at LD50 dose by H and E staining based assay; format: organism-based; conditions: in vivo
[33] = test system: Escherichia coli; experiment: Antibacterial activity against Escherichia coli ATCC 25922 assessed as fold increase in MIC in presence of MgCl2; format: functional
[34] = test system: Staphylococcus aureus; experiment: Antibacterial activity against Staphylococcus aureus ATCC 25923 infected in BALB/c mouse systemic infection model assessed as reduction in inflammatory response in lung tissue at 21.21 mg/kg, ip pre-infected for 2 hrs followed by compound addition and measured after 8 hrs postinfection; format: functional, organism-based; conditions: time 6.0 hrs
[35] = test system: Escherichia coli; experiment: Antibacterial activity against Escherichia coli ATCC 25922 in presence of KCl; format: functional, organism-based
[36] = test system: Staphylococcus aureus; experiment: Antibacterial activity against Staphylococcus aureus ATCC 25923 infected in BALB/c mouse systemic infection model assessed as reduction in bacterial load in lung at 21.21 mg/kg, ip pre-infected for 2 hrs followed by compound addition and measured after 8 hrs postinfection; format: functional, organism-based; conditions: time 6.0 hrs
[37] = test system: Klebsiella pneumoniae; experiment: Antibacterial activity against Klebsiella pneumoniae ATCC 700603 infected in BALB/c mouse lung infection model assessed as increased healing at 5.31 mg/kg, ip administered twice daily for 3 days and measured for 7 days; format: functional, organism-based; conditions: time 10.0 day
[38] = Toxicity in ip dosed BALB/c mouse assessed as kidney edema at LD50 dose by H and E staining based assay; format: organism-based; conditions: in vivo

For `CC(C)C[C@H](NC(=O)[C@H](CC(C)C)NC(=O)[C@H](Cc1ccc(O)cc1)NC(=O)[C@H](CCCCN)NC(=O)[C@H](CC(C)C)NC(=O)[C@H](CCCNC(=N)N)NC(=O)[C@H](CCCCN)NC(=O)[C@H](Cc1ccc(-c2ccccc2)cc1)NC(=O)[C@H](CC(C)C)NC(=O)CN)C(N)=O` (H-GL[Bip]KRLKYLL-NH2), the Activity [1] was “Toxic”, the “fractional inhibitory concentration index (FICI)” value [2] was 0.75 and the Activity [3] was “Active”. The half-life [4] was 81.7 min, the Activity [5] was “Active” and the Activity [6] was “inactive”. The Activity [7] was “Toxic”, the inhibition [8] was “Active” and the Activity [9] was “Dose-dependent-effect; Superior Activity Compared To Polymyxin B And Vancomycin”. The MIC [10] was 8 µM (≈ 10.6 µg/mL), the Activity [11] was “Active” and the Activity [12] was “Active; Comparable Activity To Polymyxin B”. For the same compound, the Activity [13] was “Active”, the Activity [14] was “Active; Activity Comparable To Polymyxin B” and the Activity [15] was “Active”. The Activity [16] was 100%, the Activity [17] was “Active” and the MIC [18] was 8 µM (≈ 10.6 µg/mL). For the same compound, the MIC [19] was 8 µM (≈ 10.6 µg/mL), the MIC [20] was 8 µM (≈ 10.6 µg/mL) and the Activity [21] was “Toxic”. The Activity [22] was “Active”.

With `CC(C)C[C@H](NC(=O)[C@H](CC(C)C)NC(=O)[C@H](Cc1ccc(OP(=O)(O)O)cc1)NC(=O)[C@H](CCCCN)NC(=O)[C@H](CC(C)C)NC(=O)[C@H](CCCNC(=N)N)NC(=O)[C@H](CCCCN)NC(=O)[C@H](Cc1ccc(-c2ccccc2)cc1)NC(=O)[C@H](CC(C)C)NC(=O)CN)C(N)=O` (H-GL[Bip]KRLK[pY]LL-NH2) the “fractional inhibitory concentration index (FICI)” value [2] was 0.563, the Activity [23] was “Toxic” and the half-life [4] was 511 min. For the same compound, the Activity [24] was “Active”, the Activity [6] was “inactive” and the Activity [25] was “Active”. For the same compound, the Activity [26] was “Active”, the Activity [27] was “Active; Compound Showed Excellent Tolerance Towards Salt Environment” and the Activity [28] was “Active; Comparable Activity To Polymyxin B”. For the same compound, the Activity [29] was “Active”, the inhibition [8] was “Active” and the Activity [30] was “Active; Compound Showed Excellent Tolerance Towards Salt Environment”. For the same compound, the Activity [9] was “Dose-dependent-effect; Superior Activity Compared To Polymyxin B And Vancomycin”, the Activity [31] was “Toxic” and the MIC [10] was 8 µM (≈ 11.2 µg/mL). For the same compound, the Activity [32] was “Toxic”, the “fold change (FC)” value [33] was 2 and the Activity [34] was “Active”. The Activity [14] was “Active; Activity Comparable To Polymyxin B”, the Activity [35] was “Active; Compound Showed Excellent Tolerance Towards Salt Environment” and the Activity [36] was “Active”. For the same compound, the Activity [37] was “Active”, the MIC [18] was 8 µM (≈ 11.2 µg/mL) and the MIC [19] was 8 µM (≈ 11.2 µg/mL). The MIC [20] was 15 µM (≈ 21.1 µg/mL), the Activity [22] was “Active” and the Activity [38] was “Toxic”.
